Source: US20090123389A1, “Methods for modulating Th17 cell development in the treatment and prevention of cellulite” (priority 2007, published 2009)

Assays:
[1] = test system: fibroblasts; experiment: Protein synthesis, proliferation and death of cultured fibroblasts; format: cell-based
[2] = test system: CD4+ CD25− T cells; experiment: DNA microarray transcriptional profile of T cells activated in Th17-priming conditions; format: cell-based, mouse; conditions: 10 nM

`O=C(CC1NCCCC1O)Cn1cnc2cc(Br)c(Cl)cc2c1=O` (racemic) [HF, 7-bromo-6-chloro-3-[3-(3-hydroxy-2-piperidinyl)-2-oxopropyl]-4(3H)-quinazolinone] was tested, and the “concentrations that inhibit protein synthesis and cell proliferation of fibroblasts in culture” value [1] was “over 80 nM”, the “doses that do not cause death of cultured fibroblasts” value ([1]; over a period of 5 days) was “up to 500 nM” and the “annotated genes differentially expressed at both time points in HF- versus MAZ1310-treated cells” value ([2]; 3 and 6 hours) was 81. For the same compound, the “Aars transcript fold increase, HF vs. MAZ1310” value ([2]; 3 hr, Th17-priming conditions) was 2.7 ± 0.4 fold, the “Aff1 transcript fold increase, HF vs. MAZ1310” value ([2]; 3 hr, Th17-priming conditions) was 2.3 ± 0.4 fold and the “Aldh18a1 transcript fold increase, HF vs. MAZ1310” value ([2]; 3 hr, Th17-priming conditions) was 2.1 ± 0.5 fold. For the same compound, the “Asns transcript fold increase, HF vs. MAZ1310” value ([2]; 3 hr, Th17-priming conditions) was 6.1 ± 1.2 fold, the “Atf3 transcript fold increase, HF vs. MAZ1310” value ([2]; 3 hr, Th17-priming conditions) was 3.0 ± 0.1 fold and the “Atf5 transcript fold increase, HF vs. MAZ1310” value ([2]; 3 hr, Th17-priming conditions) was 2.4 ± 0.1 fold. The “Cars transcript fold increase, HF vs. MAZ1310” value ([2]; 3 hr, Th17-priming conditions) was 2.2 ± 0.4 fold, the “Cd274 transcript fold increase, HF vs. MAZ1310” value ([2]; 3 hr, Th17-priming conditions) was 2.1 ± 0.2 fold and the “Cebpb transcript fold increase, HF vs. MAZ1310” value ([2]; 3 hr, Th17-priming conditions) was 3.9 ± 0.5 fold. For the same compound, the “Cebpg transcript fold increase, HF vs. MAZ1310” value ([2]; 3 hr, Th17-priming conditions) was 2.5 ± 0.5 fold, the “Chd2 transcript fold increase, HF vs. MAZ1310” value ([2]; 3 hr, Th17-priming conditions) was 2.2 ± 0.3 fold and the “Cldn12 transcript fold increase, HF vs. MAZ1310” value ([2]; 3 hr, Th17-priming conditions) was 3.2 ± 0.7 fold. The “Clic4 transcript fold increase, HF vs. MAZ1310” value ([2]; 3 hr, Th17-priming conditions) was 2.4 ± 0.2 fold, the “Cth transcript fold increase, HF vs. MAZ1310” value ([2]; 3 hr, Th17-priming conditions) was 2.2 ± 0.7 fold and the “Cxcl10 transcript fold increase, HF vs. MAZ1310” value ([2]; 3 hr, Th17-priming conditions) was 2.1 ± 0.3 fold. The “D8Ertd56e transcript fold increase, HF vs. MAZ1310” value ([2]; 3 hr, Th17-priming conditions) was 2.1 ± 0.3 fold, the “Ddit3 transcript fold increase, HF vs. MAZ1310” value ([2]; 3 hr, Th17-priming conditions) was 5.6 ± 1.1 fold and the “Eif4Ebp1 transcript fold increase, HF vs. MAZ1310” value ([2]; 3 hr, Th17-priming conditions) was 6.8 ± 1.8 fold. For the same compound, the “Gpt2 transcript fold increase, HF vs. MAZ1310” value ([2]; 3 hr, Th17-priming conditions) was 10.0 ± 1.2 fold, the “Herpud1 transcript fold increase, HF vs. MAZ1310” value ([2]; 3 hr, Th17-priming conditions) was 2.4 ± 0.3 fold and the “Icam1 transcript fold increase, HF vs. MAZ1310” value ([2]; 3 hr, Th17-priming conditions) was 2.0 ± 0.1 fold. The “Irf1 transcript fold increase, HF vs. MAZ1310” value ([2]; 3 hr, Th17-priming conditions) was 2.0 ± 0.3 fold, the “Lars transcript fold increase, HF vs. MAZ1310” value ([2]; 3 hr, Th17-priming conditions) was 2.3 ± 0.3 fold and the “Mpa2l transcript fold increase, HF vs. MAZ1310” value ([2]; 3 hr, Th17-priming conditions) was 2.3 ± 0.3 fold. The “Ncoa7 transcript fold increase, HF vs. MAZ1310” value ([2]; 3 hr, Th17-priming conditions) was 3.0 ± 0.3 fold, the “Nfkbiz transcript fold increase, HF vs. MAZ1310” value ([2]; 3 hr, Th17-priming conditions) was 2.0 ± 0.3 fold and the “Pck2 transcript fold increase, HF vs. MAZ1310” value ([2]; 3 hr, Th17-priming conditions) was 4.9 ± 0.8 fold. For the same compound, the “Pdcd1lg2 transcript fold increase, HF vs. MAZ1310” value ([2]; 3 hr, Th17-priming conditions) was 3.2 ± 0.7 fold, the “Phgdh transcript fold increase, HF vs. MAZ1310” value ([2]; 3 hr, Th17-priming conditions) was 3.8 ± 0.9 fold and the “Psat1 transcript fold increase, HF vs. MAZ1310” value ([2]; 3 hr, Th17-priming conditions) was 2.1 ± 0.5 fold. The “Psph transcript fold increase, HF vs. MAZ1310” value ([2]; 3 hr, Th17-priming conditions) was 3.5 ± 0.4 fold, the “Pvr transcript fold increase, HF vs. MAZ1310” value ([2]; 3 hr, Th17-priming conditions) was 2.0 ± 0.3 fold and the “Pycr1 transcript fold increase, HF vs. MAZ1310” value ([2]; 3 hr, Th17-priming conditions) was 4.6 ± 0.7 fold. For the same compound, the “Pycs transcript fold increase, HF vs. MAZ1310” value ([2]; 3 hr, Th17-priming conditions) was 2.1 ± 0.2 fold, the “Sars1 transcript fold increase, HF vs. MAZ1310” value ([2]; 3 hr, Th17-priming conditions) was 2.0 ± 0.3 fold and the “Sesn2 transcript fold increase, HF vs. MAZ1310” value ([2]; 3 hr, Th17-priming conditions) was 2.6 ± 0.3 fold. For the same compound, the “Slamf7 transcript fold increase, HF vs. MAZ1310” value ([2]; 3 hr, Th17-priming conditions) was 2.2 ± 0.4 fold, the “Slc1a4 transcript fold increase, HF vs. MAZ1310” value ([2]; 3 hr, Th17-priming conditions) was 3.2 ± 0.9 fold and the “Slc5a9 transcript fold increase, HF vs. MAZ1310” value ([2]; 3 hr, Th17-priming conditions) was 2.4 ± 0.3 fold. The “Slc7a3 transcript fold increase, HF vs. MAZ1310” value ([2]; 3 hr, Th17-priming conditions) was 2.0 ± 0.2 fold, the “Slc14a1 transcript fold increase, HF vs. MAZ1310” value ([2]; 3 hr, Th17-priming conditions) was 2.0 ± 0.1 fold and the “Trib3 transcript fold increase, HF vs. MAZ1310” value ([2]; 3 hr, Th17-priming conditions) was 7.1 ± 2.0 fold. The “Trim12 transcript fold increase, HF vs. MAZ1310” value ([2]; 3 hr, Th17-priming conditions) was 2.4 ± 0.1 fold, the “Vegfa transcript fold increase, HF vs. MAZ1310” value ([2]; 3 hr, Th17-priming conditions) was 3.2 ± 0.2 fold and the “Xist transcript fold increase, HF vs. MAZ1310” value ([2]; 3 hr, Th17-priming conditions) was 3.5 ± 1.7 fold. The “Aars transcript fold increase, HF vs. MAZ1310” value ([2]; 6 hr, Th17-priming conditions) was 2.6 ± 0.2 fold and the “Aff1 transcript fold increase, HF vs. MAZ1310” value ([2]; 6 hr, Th17-priming conditions) was 2.6 ± 0.3 fold.
